# Results taken from US20200061026A1, “METHODS AND COMPOSITIONS FOR PREVENTING VECTOR-BORNE DISEASE TRANSMISSION” (The Scripps Research Institute, priority 2016, published 2020).
# Tests used:
# Anopheles gambiae Kisumu = assay: WHO paper contact assay, Anopheles gambiae Kisumu; assay type: in vivo; conditions: papers 0.75% permethrin, 0.05% deltamethrin, 4% DDT, 0.1% bendiocarb, 1.0% fenitrothion, 4% dieldrin
# Experimental: (§1) Mosquito colonies utilized in the examples were generally maintained as described: The colony of Anopheles stephensi (Sind-Kasur Nijmegen strain) was maintained at the Radboud University Medical Center, Nijmegen, The Netherlands, by 30° C. and 70-80% humidity and on a 12/12 hour day/night cycle. The Anopheles gambiae strains Kisumu and Tiassalé and the Aedes aegypti strains New Orleans and Cayman were reared at the Liverpool Insect Testing Establishment, Liverpool, UK. Kisumu is an insecticide susceptible lab strain. New Orleans was originally colonized by the Centers for Disease Control and Prevention. The Tiassalé strain was colonized from Southern Cote D'Ivoire where resistance to all classes of insecticide is found and the Cayman strain was colonized from Grand Cayman, where Aedes aegypti are highly resistant to DDT and pyrethroid insecticides. Both resistant strains are routinely selected with insecticides to ensure the maintenance of resistance, 0.75% permethrin for Cayman and 0.05% deltamethrin for Tiassalé, and profiled for resistance to a range of insecticides, including 4% dieldrin, to which Tiassalé is resistant but Cayman is susceptible.
# (§2) Without being bound by theory, isoxazolines occupy a binding site that is distinct from the targets of known modulators of ionotropic GABA receptors. In line with this notion, fluralaner and afoxolaner were fully active against the Anopheles gambiae Tiassalé strain that carries the resistance-to-dieldrin (rdl) mutation in the GABA receptor. In addition, they were equipotent against pyrethroid- and carbamate-resistant strains carrying mutations in the kdr sodium channel and acetylcholine esterase (Ace-1) genes respectively. […] The results are shown as percentage of survival (on over 100 mosquitoes for each case), the bold and underlined numbers indicate values that fall within the criteria for resistance.
# [1] = tested on: Anopheles gambiae Tiassale 13; assay: WHO paper contact assay, Anopheles gambiae Tiassale; assay type: in vivo; conditions: papers 0.75% permethrin, 0.05% deltamethrin, 4% DDT, 0.1% bendiocarb, 1.0% fenitrothion, 4% dieldrin
# Experimental: as §1, §2
# [2] = tested on: Aedes aegypti New Orleans; assay: WHO paper contact assay, Aedes aegypti New Orleans; assay type: in vivo; conditions: papers 0.75% permethrin, 0.05% deltamethrin, 4% DDT, 0.1% bendiocarb, 1.0% fenitrothion, 4% dieldrin
# Experimental: as §1, §2
# Aedes aegypti Cayman = assay: WHO paper contact assay, Aedes aegypti Cayman; assay type: in vivo; conditions: papers 0.75% permethrin, 0.05% deltamethrin, 4% DDT, 0.1% bendiocarb, 1.0% fenitrothion, 4% dieldrin
# Experimental: as §1, §2
# malaria transmission = conditions: cited from earlier work
# in vitro [3] = conditions: human, hepatocytes
# Experimental: (§3) In a further assay, isoxazolines (fluralaner and afoxolaner) and control compounds (7-Ethoxycoumarin and 7-Hydroxycoumarin [Sigma]) were dissolved in DMSO at 10 and 30 mM respectively, then diluted first 20-fold with 45% methanol in water and a further 10-fold in pre-warmed Williams' Medium E. Cryopreserved human, dog and rat hepatocytes (In Vitro Technologies) were thawed, isolated by percoll gradient and suspended in Williams' Medium E. Cells were then dispensed into the wells of 96-well plates containing 10 μL of diluted compounds, to reach a final concentration of 0.5×10^6 cells/mL and 1 μM of isoxazolines or 3 μM of control. After an incubation at 37° C. of 0, 15, 30, 60 or 90 minutes, the reaction was stopped with acetonitrile. The samples were then shaken for 10 minutes at 500 rpm and centrifuged at 3220 g for 20 minutes. Supernatants were transferred and stored at 4° C. until LC-MS-MS analysis.
# in vitro [4] = conditions: hepatocytes
# Experimental: as §3
# in vitro [5] = conditions: hepatocytes; remark: listed apart in the source
# Experimental: as §3
# [6] = tested on: Anopheles gambiae (Tiassalé); assay: Membrane feeding, Anopheles gambiae Tiassalé strain (rdl mutation); assay type: in vivo; conditions: Tiassale strain; membrane feeding
# Experimental: as §1
# Isoxazoline compounds fluralaner or afoxolaner were reconstituted in 50% human serum and 50% red blood cells and administered to adult Anopheles stephensi mosquitos via standard membrane feeding. Lethality was assessed 1, 2 or 8 days after exposure. FIG. 2A represents a plot of viable Anopheles stephensi versus fluralaner concentration at each day of assessment. FIG. 2B represents a plot of viable Anopheles stephensi versus afoxolaner concentration at each day of assessment. […] The IC50 values of each compound for Anopheles death were determined by logistic regression using a least squares method to find the best fit and are shown in Table 1. IC50 values were calculated by applying a four-parameter logistic regression model using a least-squares method to find the best fit using the Graphpad Prism 5.0 software package.
# The membrane feeding experiment described was repeated using the insecticide dieldrin on two strains of Anopheles gambiae: Kisumu and Tiassale. The Tiassale strain has a mutation in the resistance to dieldrin (rdl) locus, which codes for γ-aminobutyric acid (GABA) receptor. The Tiassale strain was resistant to pyrethroids, carbamate, DDT and dieldrin (knockdown resistance (kdr), Ace and rdl mutations). The Kisumu strain was susceptible to killing by all tested insecticides. FIG. 3A represents a plot of percentage survival of Kisumu and Tiassale strains of Anopheles gambiae versus dieldrin concentration. FIG. 3B represents a plot of survival of the Kisumu and Tiassale strains at 10 μM dieldrin. […] Both figures indicate that the dose-response in systemic feed experiment performed here in allows for identification of a resistance profile.
# The feed experiment in Anopheles gambiae was repeated using the isoxazoline compounds fluralaner and afoxolaner to determine if the rdl mutation confers resistance to the isoxazoline insecticides. Isoxazoline insecticides target Rdl, but in a location thought to be different from dieldrin. The mosquitos were fed fluralaner or afoxolaner at various concentrations and lethality was assessed after 24 hours. FIG. 4A represents a plot of percentage survival of Kisumu and Tiassale strains of Anopheles gambiae versus fluralaner concentration. FIG. 4B represents a plot of percentage survival of Kisumu and Tiassale strains of Anopheles gambiae versus afoxolaner concentration.
Molecule,percentage of survival (Anopheles gambiae Kisumu),percentage of survival [1],percentage of survival [2],percentage of survival (Aedes aegypti Cayman),also measured
COP(=S)(OC)Oc1ccc([N+](=O)[O-])c(C)c1 [Fenitrothion],100%,96%,100%,100%,
ivermectin,,,,,"estimated reduction in new malaria cases in children under 5 (malaria transmission; MDA studies): 16%; reduction in infectious Anopheles gambiae (malaria transmission; MDA studies): ~80%; estimated reduction in transmission potential (malaria transmission; co-treatment with artemether-lumefantrine, effect short-lived): 35%"
CC1(C)[C@H](C(=O)O[C@H](C#N)c2cccc(Oc3ccccc3)c2)[C@@H]1C=C(Br)Br [Deltamethrin],100%,10%,100%,36%,
CC1(C)C(C=C(Cl)Cl)C1C(=O)OCc1cccc(Oc2ccccc2)c1 (stereo not shown) [Permethrin],100%,3%,100%,7%,
CNC(=O)Oc1cccc2c1OC(C)(C)O2 [Bendiocarb],100%,11%,27%,20%,
Clc1ccc(C(c2ccc(Cl)cc2)C(Cl)(Cl)Cl)cc1 [DDT],100%,3%,100%,0%,
CCOc1ccc2ccc(=O)oc2c1 [7-Ethoxycoumarin],,,,,half-life (in vitro [3]): 20.1 min; hepatocyte CLint (in vitro [3]): 69.1 µL/min/1e6 cells; half-life (in vitro [4]; dog): 14 min; hepatocyte CLint (in vitro [4]; dog): 99.3 µL/min/1e6 cells; half-life (in vitro [5]; rat): 61.8 min; hepatocyte CLint (in vitro [5]; rat): 22.4 µL/min/1e6 cells
O=c1ccc2ccc(O)cc2o1 [7-Hydroxycoumarin],,,,,half-life (in vitro [3]): 14.7 min; hepatocyte CLint (in vitro [3]): 94.1 µL/min/1e6 cells; half-life (in vitro [4]): 20.4 min; hepatocyte CLint (in vitro [4]): 68.1 µL/min/1e6 cells; half-life (in vitro [5]): 4.8 min; hepatocyte CLint (in vitro [5]): 290 µL/min/1e6 cells
ClC1=C(Cl)[C@]2(Cl)[C@@H]3[C@@H]4C[C@@H]([C@H]5O[C@@H]45)[C@@H]3[C@@]1(Cl)C2(Cl)Cl [Dieldrin],96%,21%,100%,95%,resistance of strain to killing (in words) [6]: confers resistance to killing by dieldrin
